Measured values reported in patent publication US20250129069A1, “TRIAZOLO WRN INHIBITORS” (Nimbus Wadjet, Inc., priority 2023, published 2025).
Read-outs that look alike come from different tables or passages of the source.

Tests used:
[1] = target: human Werner helicase (WRN, amino acids 517-1235 with L1074F point mutation) (Homo sapiens (Human), UniProt Q14191, L1074F); experiment: WRN (BV08) ADP-Glo assay; format: biochemical; conditions: human WRN (aa 517-1235, L1074F), read-out: ADP-Glo_hWRN_IC50
Procedure, shortened: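 ADP-Glo luminescence read after 60 min, 25 °C reaction of 0.15 nM WRN (517-1235, L1074F, Sf9-expressed, tag removed) with 0.1 nM DNA duplex and 5 μM ATP, following 15 min compound preincubation; 20 mM Bicine pH 7.5, 1% DMSO. IC50 from 3- or 4-parameter fit of % inhibition.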

[2] = test system: p21 induction in HCT 116 cells; experiment: p21 induction in cells (In-Cell Western, p21/GAPDH ratio); format: cell-based; conditions: 24 h compound incubation, read-out: p21_EC50
Procedure, shortened: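 EC50 values come from nonlinear fits of percent activation, defined by the 800/700 nm p21-to-GAPDH ratio scaled between DMSO (low) and internal WRN inhibitor (high) controls. In-Cell Western read after 24 h compound exposure of HCT 116 cells at 37° C. Duplicate 11-point series, 2-fold steps, usually starting at 10 μM.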

Sequence of human Werner helicase (WRN, amino acids 517-1235 with L1074F point mutation) (Q14191 other isoform, or with tags, fused parts or gaps L1074F (already in the parent)): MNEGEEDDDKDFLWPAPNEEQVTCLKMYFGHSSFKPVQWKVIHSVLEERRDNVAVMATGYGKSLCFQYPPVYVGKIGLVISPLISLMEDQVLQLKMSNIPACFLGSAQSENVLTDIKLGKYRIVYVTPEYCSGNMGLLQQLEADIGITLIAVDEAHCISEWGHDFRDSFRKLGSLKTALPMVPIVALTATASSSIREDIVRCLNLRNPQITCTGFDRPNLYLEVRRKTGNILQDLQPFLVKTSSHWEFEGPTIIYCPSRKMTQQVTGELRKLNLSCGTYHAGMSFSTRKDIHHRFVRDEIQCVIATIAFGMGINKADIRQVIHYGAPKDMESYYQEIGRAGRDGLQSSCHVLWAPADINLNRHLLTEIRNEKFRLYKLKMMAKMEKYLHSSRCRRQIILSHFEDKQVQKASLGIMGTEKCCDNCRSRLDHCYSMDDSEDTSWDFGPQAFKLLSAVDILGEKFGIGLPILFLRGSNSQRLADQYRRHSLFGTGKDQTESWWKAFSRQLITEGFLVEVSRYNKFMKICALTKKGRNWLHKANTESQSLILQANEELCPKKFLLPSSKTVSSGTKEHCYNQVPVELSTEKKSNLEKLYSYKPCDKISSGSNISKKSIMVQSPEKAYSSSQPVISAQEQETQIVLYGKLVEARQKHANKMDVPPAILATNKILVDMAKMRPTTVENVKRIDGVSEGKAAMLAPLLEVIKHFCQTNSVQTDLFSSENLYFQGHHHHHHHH

| Structure (SMILES) | IC50 [1] [µM] | EC50 ([2]; Homo sapiens) [µM] | EC50 [2] [µM] |
| --- | --- | --- | --- |
| CCc1c(N2CCN(C(=O)c3ncnc(C)c3O)[C@H]3CC[C@@H]32)c(=O)c2nn(-c3ccnc(OC)c3)nc2n1CC(=O)NC12CC(C(C)C)(C1)C2 [Compound I-48, 2-{5-ethyl-6-[(1S,6S)-5-(5-hydroxy-6-methylpyrimidine-4-carbonyl)-2,5-diazabicyclo[4.2.0]octan-2-yl]-2-(2-methoxypyridin-4-yl)-7-oxo-2H,4H,7H-[1,2,3]triazolo[4,5-b]pyridin-4-yl}-N-[3-(propan-2-yl)bicyclo[1.1.1]pentan-1-yl]acetamide] | 0.005 to 0.05 | – | ≤ 0.5 |
| CCc1c(N2CCN(C(=O)c3ncnc(C)c3O)[C@H]3CC[C@@H]32)c(=O)c2nn(C3=CCOCC3)nc2n1CC(=O)NC12CC(C(C)C)(C1)C2 [Compound I-49, 2-[2-(3,6-dihydro-2H-pyran-4-yl)-5-ethyl-6-[(1S,6S)-5-(5-hydroxy-6-methylpyrimidine-4-carbonyl)-2,5-diazabicyclo[4.2.0]octan-2-yl]-7-oxo-2H,4H,7H-[1,2,3]triazolo[4,5-b]pyridin-4-yl]-N-[3-(propan-2-yl)bicyclo[1.1.1]pentan-1-yl]acetamide] | 0.005 to 0.05 | – | ≤ 0.5 |
| CCc1c(N2CCN(C(=O)c3c(OC)ncc(COC)c3O)CC2)c(=O)c2nn(-c3ccnc(OC)c3)nc2n1CC(=O)NC12CC(C(C)C)(C1)C2 [Compound I-50, 2-(5-ethyl-6-{4-[4-hydroxy-2-methoxy-5-(methoxymethyl)pyridine-3-carbonyl]piperazin-1-yl}-2-(2-methoxypyridin-4-yl)-7-oxo-2H,4H,7H-[1,2,3]triazolo[4,5-b]pyridin-4-yl)-N-[3-(propan-2-yl)bicyclo[1.1.1]pentan-1-yl]acetamide] | 0.005 to 0.05 | 2 to 5 | – |
| CCc1c(N2CCN(C(=O)c3c(OC)ncc(C(F)F)c3O)CC2)c(=O)c2nn(-c3ccnc(OC)c3)nc2n1CC(=O)NC12CC(C(C)C)(C1)C2 [Compound I-51, 2-(6-{4-[5-(difluoromethyl)-4-hydroxy-2-methoxypyridine-3-carbonyl]piperazin-1-yl}-5-ethyl-2-(2-methoxypyridin-4-yl)-7-oxo-2H,4H,7H-[1,2,3]triazolo[4,5-b]pyridin-4-yl)-N-[3-(propan-2-yl)bicyclo[1.1.1]pentan-1-yl]acetamide] | 0.005 to 0.05 | 2 to 5 | – |
| CCc1c(N2CCN(C(=O)c3cccc4ncoc34)[C@H]3CC[C@@H]32)c(=O)c2nn(C3=CCOCC3)nc2n1CC(=O)NC12CC(C(C)C)(C1)C2 [Compound I-52, 2-{6-[(1S,6S)-5-(1,3-benzoxazole-7-carbonyl)-2,5-diazabicyclo[4.2.0]octan-2-yl]-2-(3,6-dihydro-2H-pyran-4-yl)-5-ethyl-7-oxo-2H,4H,7H-[1,2,3]triazolo[4,5-b]pyridin-4-yl}-N-[3-(propan-2-yl)bicyclo[1.1.1]pentan-1-yl]acetamide] | 0.005 to 0.05 | 0.5 to 2 | – |
| CCc1c(N2CCN(C(=O)c3ccccc3OC)[C@H]3CC[C@@H]32)c(=O)c2nn(C3=CCOCC3)nc2n1CC(=O)NC12CC(C(C)C)(C1)C2 [Compound I-53, 2-[2-(3,6-dihydro-2H-pyran-4-yl)-5-ethyl-6-[(1S,6S)-5-(2-methoxybenzoyl)-2,5-diazabicyclo[4.2.0]octan-2-yl]-7-oxo-2H,4H,7H-[1,2,3]triazolo[4,5-b]pyridin-4-yl]-N-[3-(propan-2-yl)bicyclo[1.1.1]pentan-1-yl]acetamide] | 0.005 to 0.05 | ≤ 0.5 | – |

Results, then the compound that gave them:

| IC50 [1] [µM] | EC50 ([2]; Homo sapiens) [µM] | EC50 [2] [µM] | Structure (SMILES) |
| --- | --- | --- | --- |
| 0.005 to 0.05 | ≤ 0.5 | – | CCc1c(N2CCN(C(=O)c3ncnc(C)c3O)[C@H]3CC[C@@H]32)c(=O)c2nn(-c3cc(C)n(C)n3)nc2n1CC(=O)NC1CC2(CCC2)C1 [Compound I-36, 2-[2-(1,5-dimethyl-1H-pyrazol-3-yl)-5-ethyl-6-[(1S,6S)-5-(5-hydroxy-6-methylpyrimidine-4-carbonyl)-2,5-diazabicyclo[4.2.0]octan-2-yl]-7-oxo-2H,4H,7H-[1,2,3]triazolo[4,5-b]pyridin-4-yl]-N-{spiro[3.3]heptan-2-yl}acetamide] |
| 0.005 to 0.05 | 0.5 to 2 | – | CCc1c(N2CCN(C(=O)c3c(O)cncc3OC)CC2)c(=O)c2nn(-c3ccnc(OC)c3)nc2n1CC(=O)NC12CC(C(C)C)(C1)C2 [Compound I-37, 2-{5-ethyl-6-[4-(3-hydroxy-5-methoxypyridine-4-carbonyl)piperazin-1-yl]-2-(2-methoxypyridin-4-yl)-7-oxo-2H,4H,7H-[1,2,3]triazolo[4,5-b]pyridin-4-yl}-N-[3-(propan-2-yl)bicyclo[1.1.1]pentan-1-yl]acetamide] |
| 0.005 to 0.05 | – | ≤ 0.5 | CCc1c(N2CCN(C(=O)c3ncnc(C)c3O)[C@H]3CC[C@@H]32)c(=O)c2nn(-c3ccnc(OC)c3)nc2n1CC(=O)NC12CC(OC(F)(F)F)(C1)C2 [Compound I-40, 2-{5-ethyl-6-[(1S,6S)-5-(5-hydroxy-6-methylpyrimidine-4-carbonyl)-2,5-diazabicyclo[4.2.0]octan-2-yl]-2-(2-methoxypyridin-4-yl)-7-oxo-2H,4H,7H-[1,2,3]triazolo[4,5-b]pyridin-4-yl}-N-[3-(trifluoromethoxy)bicyclo[1.1.1]pentan-1-yl]acetamide] |
| 0.005 to 0.05 | 0.5 to 2 | – | CCc1c(C23CCN(C(=O)c4ncnc(C)c4O)CC2C3)c(=O)c2nn(-c3ccnc(OC)c3)nc2n1CC(=O)NC12CC(C(C)C)(C1)C2 [Compound I-42, rel-2-{5-ethyl-6-[(1R,6S)-3-(5-hydroxy-6-methylpyrimidine-4-carbonyl)-3-azabicyclo[4.1.0]heptan-6-yl]-2-(2-methoxypyridin-4-yl)-7-oxo-2H,4H,7H-[1,2,3]triazolo[4,5-b]pyridin-4-yl}-N-[3-(propan-2-yl)bicyclo[1.1.1]pentan-1-yl]acetamide] |
| 0.005 to 0.05 | ≤ 0.5 | – | CCc1c(N2CCN(C(=O)c3c(OCCOC)ncc(C)c3O)CC2)c(=O)c2nn(-c3ccnc(OC)c3)nc2n1CC(=O)NC12CC(C(C)C)(C1)C2 [Compound I-45, 2-(5-ethyl-6-{4-[4-hydroxy-2-(2-methoxyethoxy)-5-methylpyridine-3-carbonyl]piperazin-1-yl}-2-(2-methoxypyridin-4-yl)-7-oxo-2H,4H,7H-[1,2,3]triazolo[4,5-b]pyridin-4-yl)-N-[3-(propan-2-yl)bicyclo[1.1.1]pentan-1-yl]acetamide] |
| 0.005 to 0.05 | ≤ 0.5 | – | CCc1c(N2CCN(C(=O)c3ncnc(C)c3O)[C@H]3CC[C@@H]32)c(=O)c2nn(-c3cnn(C4CC4)c3)nc2n1CC(=O)NC12CC(C3CC3)(C1)C2 [Compound I-46, 2-[2-(1-cyclopropyl-1H-pyrazol-4-yl)-5-ethyl-6-[(1S,6S)-5-(5-hydroxy-6-methylpyrimidine-4-carbonyl)-2,5-diazabicyclo[4.2.0]octan-2-yl]-7-oxo-2H,4H,7H-[1,2,3]triazolo[4,5-b]pyridin-4-yl]-N-{3-cyclopropylbicyclo[1.1.1]pentan-1-yl}acetamide] |
| 0.005 to 0.05 | 0.5 to 2 | – | CCc1c(N2CCN(C(=O)c3ncnc(C)c3O)[C@H]3CC[C@@H]32)c(=O)c2nn(-c3ccnc(OC)c3)nc2n1CC(=O)NC1CC2(CC(F)C2)C1 (stereo partly drawn) [Compound I-47, 2-{5-ethyl-6-[(1S,6S)-5-(5-hydroxy-6-methylpyrimidine-4-carbonyl)-2,5-diazabicyclo[4.2.0]octan-2-yl]-2-(2-methoxypyridin-4-yl)-7-oxo-2H,4H,7H-[1,2,3]triazolo[4,5-b]pyridin-4-yl}-N-{6-fluorospiro[3.3]heptan-2-yl}acetamide] |
